Results taken from ChEMBL document CHEMBL1201862, “PubChem BioAssay data set” (2004).
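Five compound concentrations were applied to cells in 96-well plates for 48 hours; endpoints were derived by simple linear interpolation of the resulting dose-response curve. GI50 is the concentration that inhibits growth by half.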 Calls of active or inactive are those of the source. No stated cut-off is given here; in the data, active = GI50 up to about 1.1 µM and inactive = higher.

How the values were obtained:
Assay in all cases: NCI-60 cell line screen, 48 h
Hs-578T = test system: Hs-578T
K562 = test system: K562
SF-295 = test system: SF-295
CCRF-CEM = test system: CCRF-CEM
TK-10 = test system: TK-10
COLO 205 = test system: COLO 205
ACHN = test system: ACHN
NCI-H460 = test system: NCI-H460
LOX IMVI = test system: LOX IMVI
M14 = test system: M14
HCT-15 = test system: HCT-15
SF-268 = test system: SF-268
SNB-75 = test system: SNB-75
UO-31 = test system: UO-31
UACC-62 = test system: UACC-62
HL-60 = test system: HL-60
MDA-MB-231 = test system: MDA-MB-231
SK-MEL-28 = test system: SK-MEL-28
KM12 = test system: KM12
NCI-H522 = test system: NCI-H522
MOLT-4 = test system: MOLT-4
T47D = test system: T47D
NCI-H226 = test system: NCI-H226
MDA-MB-435 = test system: MDA-MB-435
SK-MEL-2 = test system: SK-MEL-2
SN12C = test system: SN12C
PC-3 = test system: PC-3
NCI-H23 = test system: NCI-H23
SK-MEL-5 = test system: SK-MEL-5
OVCAR-5 = test system: OVCAR-5
CAKI-1 = test system: CAKI-1
MDA-N = test system: MDA-N
SW-620 = test system: SW-620
UACC-257 = test system: UACC-257
SR = test system: SR
U-251 = test system: U-251
IGROV-1 = test system: IGROV-1
NCI/ADR-RES = test system: NCI/ADR-RES
HOP-62 = test system: HOP-62
A549 = test system: A549
RPMI-8226 = test system: RPMI-8226
EKVX = test system: EKVX
MCF7 = test system: MCF7
SF-539 = test system: SF-539
RXF 393 = test system: RXF 393
HCT-116 = test system: HCT-116
Malme-3M = test system: Malme-3M
DU-145 = test system: DU-145
OVCAR-8 = test system: OVCAR-8
HT-29 = test system: HT-29
OVCAR-3 = test system: OVCAR-3
HCC 2998 = test system: HCC 2998
SNB-19 = test system: SNB-19
BT-549 = test system: BT-549
786-0 = test system: 786-0
SK-OV-3 = test system: SK-OV-3
A498 = test system: A498
HOP-92 = test system: HOP-92
OVCAR-4 = test system: OVCAR-4

For O=C(N/N=C\c1ccc(Cl)cc1)Nc1cccc2ccccc12, the GI50 (Hs-578T) was 2.67 µM (inactive), the GI50 (K562) was 3.23 µM (inactive) and the GI50 (SF-295) was 2.52 µM (inactive). For the same compound, the GI50 (CCRF-CEM) was 7.96 µM (inactive), the GI50 (TK-10) was 3.32 µM (inactive) and the GI50 (COLO 205) was 4.75 µM (inactive). The GI50 (ACHN) was 2.37 µM (inactive), the GI50 (NCI-H460) was 3.24 µM (inactive) and the GI50 (LOX IMVI) was 4.49 µM (inactive). For the same compound, the GI50 (M14) was 7.16 µM (inactive), the GI50 (HCT-15) was 3.36 µM and the GI50 (SF-268) was 6.44 µM (inactive). The GI50 (SNB-75) was 2.4 µM (inactive), the GI50 (UO-31) was 2.1 µM (inactive) and the GI50 (UACC-62) was 9.48 µM (inactive). The GI50 (HL-60) was 4.93 µM (inactive), the GI50 (MDA-MB-231) was 8.89 µM (inactive) and the GI50 (SK-MEL-28) was 22.5 µM (inactive). The GI50 (KM12) was 2.61 µM (inactive), the GI50 (NCI-H522) was 4.83 µM (inactive) and the GI50 (MOLT-4) was 5.61 µM (inactive). For the same compound, the GI50 (T47D) was 5.52 µM (inactive), the GI50 (NCI-H226) was 10.4 µM (inactive) and the GI50 (MDA-MB-435) was 2 µM (inactive). The GI50 (SK-MEL-2) was 21.5 µM (inactive), the GI50 (SN12C) was 9.51 µM (inactive) and the GI50 (PC-3) was 5.97 µM (inactive). For the same compound, the GI50 (NCI-H23) was 9.71 µM (inactive), the GI50 (SK-MEL-5) was 4.45 µM (inactive) and the GI50 (OVCAR-5) was 25.8 µM (inactive). For the same compound, the GI50 (CAKI-1) was 2.42 µM (inactive), the GI50 (MDA-N) was 2.21 µM (inactive) and the GI50 (SW-620) was 3.41 µM (inactive). For the same compound, the GI50 (UACC-257) was 8.75 µM (inactive), the GI50 (SR) was 3.16 µM (inactive) and the GI50 (U-251) was 2.96 µM (inactive). The GI50 (IGROV-1) was 3.49 µM (inactive), the GI50 (NCI/ADR-RES) was > 25 µM (inactive) and the GI50 (HOP-62) was 2.01 µM (inactive). For the same compound, the GI50 (A549) was 6.71 µM (inactive), the GI50 (RPMI-8226) was 5.66 µM (inactive) and the GI50 (EKVX) was 18.7 µM (inactive). For the same compound, the GI50 (MCF7) was 3.4 µM (inactive), the GI50 (SF-539) was 5.41 µM (inactive) and the GI50 (RXF 393) was 3.01 µM (inactive). For the same compound, the GI50 (HCT-116) was 3.04 µM (inactive), the GI50 (Malme-3M) was 4.24 µM (inactive) and the GI50 (DU-145) was 5.57 µM (inactive). For the same compound, the GI50 (OVCAR-8) was 5.2 µM (inactive), the GI50 (HT-29) was 3.21 µM (inactive) and the GI50 (OVCAR-3) was 1.54 µM (inactive). For the same compound, the GI50 (HCC 2998) was 2.4 µM (inactive), the GI50 (SNB-19) was 2.66 µM (inactive) and the GI50 (BT-549) was 21.7 µM (inactive). For the same compound, the GI50 (786-0) was 1.98 µM (inactive), the GI50 (SK-OV-3) was 2.71 µM (inactive) and the GI50 (A498) was 2.67 µM (inactive). The GI50 (HOP-92) was 4.91 µM (inactive) and the GI50 (OVCAR-4) was 2.59 µM (inactive).
With COc1ccc(C2C3=C(COC3=O)OC(C)(C)Oc3cc4c(cc32)OCO4)cc1 (stereo not drawn) the GI50 (Hs-578T) was 27.4 µM (inactive), the GI50 (K562) was 5.13 µM (inactive) and the GI50 (SF-295) was 35.2 µM (inactive). For the same compound, the GI50 (CCRF-CEM) was 22.4 µM (inactive), the GI50 (TK-10) was 43.5 µM (inactive) and the GI50 (COLO 205) was 16.1 µM (inactive). The GI50 (ACHN) was 40 µM (inactive), the GI50 (NCI-H460) was 26.7 µM (inactive) and the GI50 (LOX IMVI) was 26.2 µM (inactive). The GI50 (M14) was 24.2 µM (inactive), the GI50 (HCT-15) was 23.7 µM and the GI50 (SF-268) was 44.6 µM (inactive). For the same compound, the GI50 (SNB-75) was 9.46 µM (inactive), the GI50 (UO-31) was 28.8 µM (inactive) and the GI50 (UACC-62) was 25.5 µM (inactive). The GI50 (HL-60) was 12 µM (inactive), the GI50 (MDA-MB-231) was 18.6 µM (inactive) and the GI50 (SK-MEL-28) was 43.1 µM (inactive). The GI50 (KM12) was 8.81 µM (inactive), the GI50 (NCI-H522) was 17.4 µM (inactive) and the GI50 (MOLT-4) was 23.3 µM (inactive). The GI50 (T47D) was 26.3 µM (inactive), the GI50 (NCI-H226) was > 55.3 µM (inactive) and the GI50 (MDA-MB-435) was 3.51 µM (inactive). For the same compound, the GI50 (SK-MEL-2) was 37.8 µM (inactive), the GI50 (SN12C) was 37 µM (inactive) and the GI50 (PC-3) was 15.1 µM (inactive). For the same compound, the GI50 (NCI-H23) was 34.4 µM (inactive), the GI50 (SK-MEL-5) was 20.4 µM (inactive) and the GI50 (OVCAR-5) was 56.8 µM (inactive). The GI50 (CAKI-1) was 24.1 µM (inactive), the GI50 (MDA-N) was 2.96 µM (inactive) and the GI50 (SW-620) was 21.8 µM (inactive). The GI50 (UACC-257) was 38.3 µM (inactive), the GI50 (SR) was 43.1 µM (inactive) and the GI50 (U-251) was 31.8 µM (inactive). The GI50 (IGROV-1) was 29.3 µM (inactive), the GI50 (NCI/ADR-RES) was 18.5 µM (inactive) and the GI50 (HOP-62) was 23.6 µM (inactive). For the same compound, the GI50 (A549) was 35.6 µM (inactive), the GI50 (RPMI-8226) was 34.1 µM (inactive) and the GI50 (EKVX) was 35.5 µM (inactive). For the same compound, the GI50 (MCF7) was > 64.4 µM (inactive), the GI50 (SF-539) was 24.2 µM (inactive) and the GI50 (RXF 393) was 36.6 µM (inactive). The GI50 (HCT-116) was 25.4 µM (inactive), the GI50 (Malme-3M) was 17.7 µM (inactive) and the GI50 (DU-145) was 32.5 µM (inactive). The GI50 (OVCAR-8) was 55.8 µM (inactive), the GI50 (HT-29) was 24.4 µM (inactive) and the GI50 (OVCAR-3) was 36.6 µM (inactive). For the same compound, the GI50 (HCC 2998) was 40.5 µM (inactive), the GI50 (SNB-19) was 45.3 µM (inactive) and the GI50 (BT-549) was 16.9 µM (inactive). The GI50 (786-0) was 39.4 µM (inactive), the GI50 (SK-OV-3) was 50.1 µM (inactive) and the GI50 (A498) was 22.8 µM (inactive). The GI50 (HOP-92) was 11.8 µM (inactive) and the GI50 (OVCAR-4) was 33.9 µM (inactive).
